In brackets after ≈: the same amount, converted by molar mass.
Tests used:
VEGFR2 = biological target: T1, VEGFR2 (Homo sapiens, UniProt P35968); assay: Kinase inhibitory activity, Mobility Shift Assay (VEGFR2); type: biochemical
T1 construct: purchased Carna 08-191
Method: (§1) Assay for Inhibitory Activity of Compounds Against VEGFR and EGFR Kinases
(§2) This assay directly monitors the inhibitory activity of compounds on kinase phosphorylation by measuring non-phosphorylated and phosphorylated substrates in the kinase reaction using Mobility Shift Assays/IMAP™ analysis. Table 2. Reagents and Instruments
(§3) Kinase and DTT were added to 1X kinase buffer to form a 2.5X kinase solution; 10 µL of the 2.5X kinase solution was transferred to a 384-well reaction plate, and 1X kinase buffer was added to the negative control wells. The plate was incubated at room temperature for 10 minutes; FAM-labeled peptide, MgCl2, ATP, and other reagents were added to 1X kinase buffer to form a 2.5X substrate solution; 10 µL of the above 2.5X substrate solution was transferred to the 384-well reaction plate; the plate was incubated at 28°C for varying times, and then 25 µL of stop solution was added to the 384-well reaction plate to terminate the reaction. Conversion rate data were read on a CaliperEZ Reader II. […] IC50 values were fitted using XLFit excel add-in version 5.4.0.8. Y = Bottom + (Top−Bottom)/(1 + […]) [formula]
(§4) X is the log value of compound concentration, Y is the inhibition rate (% inhibition).

EGFR = biological target: T2, EGFR (Homo sapiens, UniProt P00533); assay: Kinase inhibitory activity, Mobility Shift Assay (EGFR); type: biochemical
T2 construct: purchased Carna 08-115
How it was run: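 Each kinase pre-incubated 10 min at room temperature, then FAM-labelled peptide with MgCl2 and ATP added; reaction at 28 °C for kinase-dependent times before stop. Substrate conversion read by mobility shift; IC50 from a four-parameter fit of % inhibition against log concentration.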

VEGFR1 = biological target: T3, VEGFR1 (Homo sapiens, UniProt P17948); assay: Kinase inhibitory activity, Mobility Shift Assay (VEGFR1); type: biochemical
T3 construct: purchased Invitrogen PR6731B
T3 sequence (P17948 27-1338): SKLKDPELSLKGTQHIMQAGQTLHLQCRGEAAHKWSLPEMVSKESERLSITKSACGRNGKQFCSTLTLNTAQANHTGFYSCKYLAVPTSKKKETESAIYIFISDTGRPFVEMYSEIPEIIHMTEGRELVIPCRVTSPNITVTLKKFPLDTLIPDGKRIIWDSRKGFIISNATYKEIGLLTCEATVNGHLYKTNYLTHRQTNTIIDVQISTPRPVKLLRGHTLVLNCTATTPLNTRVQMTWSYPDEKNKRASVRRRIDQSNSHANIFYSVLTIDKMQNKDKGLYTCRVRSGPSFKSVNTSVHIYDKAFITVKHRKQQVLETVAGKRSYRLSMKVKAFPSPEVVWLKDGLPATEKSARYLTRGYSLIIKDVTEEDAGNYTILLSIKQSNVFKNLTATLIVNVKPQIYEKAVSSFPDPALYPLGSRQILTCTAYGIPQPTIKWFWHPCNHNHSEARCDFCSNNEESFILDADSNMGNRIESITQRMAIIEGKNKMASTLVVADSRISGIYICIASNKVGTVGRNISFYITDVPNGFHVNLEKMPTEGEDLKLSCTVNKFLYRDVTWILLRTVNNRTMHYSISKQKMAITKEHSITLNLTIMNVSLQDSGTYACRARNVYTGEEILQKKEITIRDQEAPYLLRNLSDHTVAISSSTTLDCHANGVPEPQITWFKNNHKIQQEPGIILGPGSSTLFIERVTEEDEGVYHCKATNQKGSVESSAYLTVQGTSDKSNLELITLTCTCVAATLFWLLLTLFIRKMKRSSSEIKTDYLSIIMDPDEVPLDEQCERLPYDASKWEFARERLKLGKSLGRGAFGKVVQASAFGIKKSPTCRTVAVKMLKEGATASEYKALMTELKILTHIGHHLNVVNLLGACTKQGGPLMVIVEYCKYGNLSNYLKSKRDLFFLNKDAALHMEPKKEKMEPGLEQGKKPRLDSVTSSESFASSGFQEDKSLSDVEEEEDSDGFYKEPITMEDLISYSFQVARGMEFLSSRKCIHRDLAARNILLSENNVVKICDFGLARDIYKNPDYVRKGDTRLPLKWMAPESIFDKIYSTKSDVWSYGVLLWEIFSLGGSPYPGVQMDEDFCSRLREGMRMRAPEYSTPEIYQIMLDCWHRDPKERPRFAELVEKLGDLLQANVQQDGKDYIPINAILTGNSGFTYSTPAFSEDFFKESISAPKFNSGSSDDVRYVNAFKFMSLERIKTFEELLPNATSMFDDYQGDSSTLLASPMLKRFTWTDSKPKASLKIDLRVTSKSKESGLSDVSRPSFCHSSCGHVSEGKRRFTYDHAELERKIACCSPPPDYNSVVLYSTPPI
Method: as §1, §2, §3, §4

VEGFR3 = biological target: T4, VEGFR3 (Homo sapiens, UniProt P35916); assay: Kinase inhibitory activity, Mobility Shift Assay (VEGFR3); type: biochemical
T4 construct: purchased Invitrogen PV4129
T4 sequence (P35916 25-1363): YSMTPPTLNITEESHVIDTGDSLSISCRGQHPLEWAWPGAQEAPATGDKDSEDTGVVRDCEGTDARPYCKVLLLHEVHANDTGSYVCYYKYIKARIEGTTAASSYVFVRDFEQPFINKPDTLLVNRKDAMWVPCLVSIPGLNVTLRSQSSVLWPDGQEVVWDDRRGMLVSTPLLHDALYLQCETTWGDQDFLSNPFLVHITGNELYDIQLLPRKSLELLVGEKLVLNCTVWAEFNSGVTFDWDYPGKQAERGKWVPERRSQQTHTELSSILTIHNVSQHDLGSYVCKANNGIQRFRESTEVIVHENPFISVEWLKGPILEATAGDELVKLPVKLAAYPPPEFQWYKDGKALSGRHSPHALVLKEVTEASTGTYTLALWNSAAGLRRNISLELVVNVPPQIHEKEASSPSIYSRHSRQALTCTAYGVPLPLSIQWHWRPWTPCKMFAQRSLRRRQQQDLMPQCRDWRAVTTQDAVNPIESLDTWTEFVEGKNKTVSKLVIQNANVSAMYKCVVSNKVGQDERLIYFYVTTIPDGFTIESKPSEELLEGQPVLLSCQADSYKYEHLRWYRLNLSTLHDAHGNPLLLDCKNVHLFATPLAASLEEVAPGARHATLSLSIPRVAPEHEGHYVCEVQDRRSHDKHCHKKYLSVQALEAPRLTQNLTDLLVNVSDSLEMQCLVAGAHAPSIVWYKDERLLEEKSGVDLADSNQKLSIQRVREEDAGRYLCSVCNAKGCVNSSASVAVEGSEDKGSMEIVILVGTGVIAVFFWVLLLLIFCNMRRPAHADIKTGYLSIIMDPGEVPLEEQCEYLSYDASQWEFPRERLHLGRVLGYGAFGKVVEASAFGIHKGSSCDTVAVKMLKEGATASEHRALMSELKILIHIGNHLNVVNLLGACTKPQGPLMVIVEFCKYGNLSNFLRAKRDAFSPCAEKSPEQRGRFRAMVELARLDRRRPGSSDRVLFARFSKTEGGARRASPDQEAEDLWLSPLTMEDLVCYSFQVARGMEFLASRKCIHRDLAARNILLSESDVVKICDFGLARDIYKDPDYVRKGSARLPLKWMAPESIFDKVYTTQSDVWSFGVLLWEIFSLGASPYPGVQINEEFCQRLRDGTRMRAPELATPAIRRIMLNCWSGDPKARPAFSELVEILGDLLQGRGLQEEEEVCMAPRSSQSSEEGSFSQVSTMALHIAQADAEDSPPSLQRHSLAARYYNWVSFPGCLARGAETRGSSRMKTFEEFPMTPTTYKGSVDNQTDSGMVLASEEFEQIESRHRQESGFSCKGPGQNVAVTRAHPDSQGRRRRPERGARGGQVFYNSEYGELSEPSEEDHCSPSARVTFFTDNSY
Method: as §1, §2, §3, §4

[1] = Thermodynamic solubility test; type: physicochemical; settings: buffer solution, aqueous buffer, thermodynamic from solid; thermodynamic solubility, room temperature, 8 hours shaking; buffers pH 2.0, 6.5, 7.4 used, pH of the tabulated value not given
How it was run: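 Samples sonicated 10 min, shaken 8 h at room temperature, re-sonicated and centrifuged at 13000 rpm for 15 min. Supernatant recentrifuged and analysed by LC-MS, with concentrations quantified against a 3–5 point calibration curve.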

melanin = assay: Compound binding to melanin; type: in vitro ADME; settings: cuttlefish (Sepia officinalis), melanin suspension (1 mg/mL), percentage of free drug (not bound to melanin), 2 µM compound, melanin 1 mg/mL in PBS pH 7.4, 37°C
How it was run: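 Compound at 2 µM final incubated with 1 mg/mL Sepia melanin in PBS pH 7.4, 37°C, 2 hours with shaking; blank in PBS with 0.1% BSA. Supernatant concentration by LC-MS/MS. Fb = 100 − (Ctest/Ccontrol) × 100%.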

[2] = biological target: T5, VEGFR2 autophosphorylation (pVEGFR2) in HUVEC cells (Homo sapiens, UniProt P35968); assay: Inhibition of VEGF-induced VEGFR2 phosphorylation in HUVEC cells (ELISA); type: cell-based; settings: 50 ng/mL human VEGF, compound 1 hour
T5 construct: endogenous in cells; host or cells: HUVEC
T5 sequence (P35968 20-1356): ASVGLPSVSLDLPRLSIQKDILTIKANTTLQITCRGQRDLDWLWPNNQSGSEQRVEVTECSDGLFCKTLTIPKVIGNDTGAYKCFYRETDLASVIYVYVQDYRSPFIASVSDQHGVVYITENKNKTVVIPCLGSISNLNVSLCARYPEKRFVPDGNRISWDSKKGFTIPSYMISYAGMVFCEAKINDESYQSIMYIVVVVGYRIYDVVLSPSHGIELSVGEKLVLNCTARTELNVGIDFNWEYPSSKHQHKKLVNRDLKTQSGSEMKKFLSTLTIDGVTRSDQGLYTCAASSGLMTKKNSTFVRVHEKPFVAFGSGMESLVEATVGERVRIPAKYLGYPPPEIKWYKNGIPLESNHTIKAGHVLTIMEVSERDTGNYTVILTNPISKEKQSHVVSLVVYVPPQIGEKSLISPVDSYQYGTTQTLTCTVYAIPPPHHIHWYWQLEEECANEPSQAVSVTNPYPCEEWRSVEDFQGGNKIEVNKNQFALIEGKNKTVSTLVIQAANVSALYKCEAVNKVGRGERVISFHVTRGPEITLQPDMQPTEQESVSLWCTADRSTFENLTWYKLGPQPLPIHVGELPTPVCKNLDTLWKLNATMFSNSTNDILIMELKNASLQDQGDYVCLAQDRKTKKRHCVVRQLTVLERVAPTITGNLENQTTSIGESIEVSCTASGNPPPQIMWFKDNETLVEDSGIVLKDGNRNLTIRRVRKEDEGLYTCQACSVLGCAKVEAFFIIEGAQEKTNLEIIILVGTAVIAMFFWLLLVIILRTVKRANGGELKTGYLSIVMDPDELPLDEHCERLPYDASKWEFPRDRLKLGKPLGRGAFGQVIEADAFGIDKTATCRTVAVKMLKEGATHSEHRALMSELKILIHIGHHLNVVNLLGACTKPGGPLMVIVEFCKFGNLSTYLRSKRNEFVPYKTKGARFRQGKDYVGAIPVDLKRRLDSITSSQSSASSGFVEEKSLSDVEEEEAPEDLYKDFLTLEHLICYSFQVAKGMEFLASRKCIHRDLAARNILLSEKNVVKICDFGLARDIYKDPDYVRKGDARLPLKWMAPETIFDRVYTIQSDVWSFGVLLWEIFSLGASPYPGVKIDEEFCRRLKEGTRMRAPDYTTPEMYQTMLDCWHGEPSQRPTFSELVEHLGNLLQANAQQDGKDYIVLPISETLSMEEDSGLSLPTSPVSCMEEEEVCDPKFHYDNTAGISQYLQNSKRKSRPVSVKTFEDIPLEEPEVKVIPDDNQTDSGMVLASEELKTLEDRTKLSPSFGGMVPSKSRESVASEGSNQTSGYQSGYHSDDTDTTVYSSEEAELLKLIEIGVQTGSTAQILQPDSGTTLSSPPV
Excerpt: Assay for Compound Inhibition of VEGFR2 Phosphorylation in HUVEC Cells
VEGF is a potent growth factor that promotes angiogenesis and vascular permeability. Vascular endothelial growth factor receptor 2 (VEGFR2) is the primary receptor for VEGF-induced endothelial cell signaling. Upon ligand binding, VEGFR2 undergoes autophosphorylation and is activated. The primary function from VEGFR2 signaling is to induce blood vessel formation during development and after tissue injury, and to bypass blocked vessels. Pathologically, VEGF and VEGFR2 are involved in tumor angiogenesis and vascular leakage. They are considered major players in many different cancers and ocular diseases accompanied by pathological neovascularization. This assay uses ELISA to measure the compound's ability to inhibit VEGF-induced VEGFR2 autophosphorylation (pVEGFR2) in HUVEC cells. Table 7. Reagents and Instruments
Before cell seeding, cells reached 60%-80% confluency in cell culture flasks. The cell suspension was diluted with pre-warmed complete medium to 4.5×10^6 cells/mL. 80 microliters of cell suspension was added to all wells of a 96-well cell plate (Corning-3599); incubated overnight at 37°C and 5% CO2. Compound powder was dissolved in DMSO to 10 mM and stored in a nitrogen cabinet. Compound dilution master plate: In a 96-well V-bottom plate (Axygen- WIPP02280), reference compound Ponatinib or test compound concentrations were added, starting from 5 mM (5 microliters of 10 mM compound solution plus 5 microliters DMSO) with 3-fold serial dilutions for a total of 8 concentration points. […] 20 microliters of diluted compound was transferred from the intermediate plate to the cell plate. The cell plate was then incubated at 37°C and 5% CO2 for 1 hour. […] It was gently shaken for 30 seconds, and the absorbance was measured within 30 minutes using a SpectraMax® 340 PC 384 Absorbance Microplate Reader, reading the optical density value at 450 nm. […]
All other values are expressed as a percentage of these controls (inhibition rate). […]

[3] = Ophthalmic formulations based on polyethylene glycol series vehicles: composition and state (Example 7); type: physicochemical; settings: Table 15: 10 mg/mL; Polyethylene glycol 400 10, Hydroxypropyl-β-cyclodextrin 10, Gellan Gum Gelrite 0.3, Poloxamer 188 1, Tris solution and Citric acid
Excerpt: In the following ophthalmic formulation preparation examples, "solution" refers to a clear, transparent liquid without visible insoluble matter. "Near-clear solution" refers to a liquid that appears close to a solution upon visual observation but may contain a small amount of insoluble particles or have a slightly opaque color. "Suspension" refers to a liquid that is visibly turbid or opaque. "Gel" refers to a completely or partially gel-like solid.
Example 7: Ophthalmic Formulations Based on Polyethylene Glycol Series Vehicles
According to the formulation composition shown in the tables below, weigh the compound powder, add it to polyethylene glycol 400, and sonicate until dissolved or nearly dissolved (heat to 50°C if necessary). Add this to a Tris-HCl buffer solution containing hydroxypropyl-β-cyclodextrin, poloxamer 188, and gellan gum (or other viscosity modifier), vortex to mix, and prepare into an eye drop formulation.

T1 sequence (P35968 20-1356): as above

SMILES	IC50 (VEGFR2)	IC50 (EGFR)	IC50 (VEGFR1)	IC50 (VEGFR3)	solubility at 8 h [1]	fraction unbound at 2 h, 2 µM (melanin)	IC50 [2]	State Description: pH [3]	State Description: state [3]
CNC(=O)c1ccccc1Sc1ccc2c(/C=C/c3ccc(OCC4CCN(C)C4)cn3)n[nH]c2c1 (stereo not drawn) [Compound I-1]	≤ 1 nM	6000 to 60000 nM	≤ 1 nM	≤ 1 nM	14.2 µg/mL (≈ 28.4 µM)	> 0.05			
CNC(=O)c1ccccc1Sc1ccc2c(/C=C/c3ccc(OCC4CCCN4C)cn3)n[nH]c2c1 (stereo not drawn) [Compound I-2, N-methyl-2-((3-((E)-2-(5-((1-methylpyrrolidin-2-yl)methoxy)pyridin-2-yl)ethenyl)-1H-indazol-6-yl)thio)benzamide]	≤ 1 nM	6000 to 60000 nM	≤ 1 nM	1 to 10 nM	28.8 µg/mL (≈ 57.6 µM)	0.01 to 0.05			
CNC(=O)c1ccccc1Sc1ccc2c(/C=C/c3ccc(OCC4CCNC4)cn3)n[nH]c2c1 (stereo not drawn) [Compound I-7]	1 to 10 nM	6000 to 60000 nM	≤ 1 nM	1 to 10 nM	294 µg/mL (≈ 605 µM)	> 0.05			
CNC(=O)c1ccccc1Sc1ccc2c(/C=C/c3ccccn3)ncn2c1 [Compound I-26, N-methyl-2-({1-[(E)-2-(pyridin-2-yl)ethenyl]imidazo[1,5-a]pyridin-6-yl}thio)benzamide]	> 100 nM	> 60000 nM	> 100 nM	> 100 nM	142 µg/mL (≈ 367 µM)	0.01 to 0.05			
CNC(=O)c1ccccc1Sc1ccn2c(/C=C/c3ccccn3)ncc2c1 [Compound I-27, N-methyl-2-({3-[(E)-2-(pyridin-2-yl)ethenyl]imidazo[1,5-a]pyridin-7-yl}thio)benzamide]	> 100 nM	6000 to 60000 nM	> 100 nM	> 100 nM		0.01 to 0.05			
O=C(O)c1ccccc1Sc1ccn2c(/C=C/c3ccccn3)ncc2c1 [Compound I-28, 2-({3-[(E)-2-(pyridin-2-yl)ethenyl]imidazo[1,5-a]pyridin-7-yl}thio)benzoic acid]	> 100 nM	≤ 600 nM	> 100 nM	> 100 nM		> 0.05			
CNC(=O)c1ccccc1Sc1ccc2c(cnn2-c2ccc(OCCN3CCCC3)cn2)c1 [Compound I-29, N-methyl-2-[(1-{5-[2-(pyrrolidin-1-yl)ethoxy]pyridin-2-yl}-1H-indazol-5-yl)sulfanyl]benzamide]	> 100 nM	> 60000 nM	> 100 nM	> 100 nM					
CNC(=O)c1ccccc1Sc1ccc2c(NC(=O)NCCN3CCN(C)CC3)n[nH]c2c1 [Compound I-31]	> 100 nM	> 60000 nM	> 100 nM	> 100 nM	542 µg/mL (≈ 1160 µM)	0.01 to 0.05			
CNC(=O)c1ccccc1Sc1ccc2c(/C=C/c3ccc(OC[C@H]4CCN(C)C4)cn3)n[nH]c2c1 [Compound I-37]	≤ 1 nM	6000 to 60000 nM	≤ 1 nM	1 to 10 nM		0.01 to 0.05			
CCN(CC)CCc1ccc(/C=C/c2n[nH]c3cc(Sc4ccccc4C(=O)NC4CC4)ccc23)nc1 [Compound I-77, N-cyclopropyl-2-({3-[(E)-2-{5-[2-(diethylamino)ethyl]pyridin-2-yl}ethenyl]-1H-indazol-6-yl}sulfanyl)benzamide]	≤ 1 nM	6000 to 60000 nM				0.01 to 0.05	≤ 1 nM	~5.5	gel
CCNC(=O)c1cc(F)ccc1Sc1ccc2c(/C=C/c3ccc(CN(CC)CC)cn3)n[nH]c2c1 [Compound I-88]	1 to 10 nM	6000 to 60000 nM			546 µg/mL (≈ 1080 µM)	> 0.05	≤ 1 nM		

From patent EP4781984A1 (Beyang Therapeutics Co., Ltd., priority 2023, dated 2025)
